Laboratory results reported in a melting point compilation (Tetko et al.; mined from patent text by program, amines drawn as free bases though some values may be those of a salt).

| SMILES | melting point [°C] |
| --- | --- |
| C[C@@H](c1ccc(-c2ccc(C#N)cn2)cc1)N1CC[C@](CC(C)(C)O)(c2ccc(F)cc2)OC1=O | 155 to 157 |
| CC(C)n1nc(-c2sc(C(N)=O)nc2-c2ccc(F)cc2)ccc1=O | 226 to 228 |
| c1ccc(NCC2CCCO2)cc1 (stereo unspecified) | 149 to 156 |
| COc1cc2c(Nc3ccc(C)c(O)c3)ncnc2cc1OCc1ccncn1 | 290 to 291 |
| CN1CCC23c4cccc(O)c4OC2C2CCC3(CC2)C1 (stereo unspecified) | 174 to 176 |
| CN(C)C1(c2ccccc2Cl)C(=O)N(Cc2ccc(C(=O)NC(C)(C)C)cc2)c2ccc(Cl)cc21 (stereo unspecified) | 177 to 178 |
| CCCCN1C(=O)N(C2CCN(CC3CCCCC3)CC2)C(c2ccccc2)c2ccccc21 (stereo unspecified) | 115 to 117 |
| COC(=O)C(c1ccc(Br)cc1)(c1ccc(Br)cc1)c1ncc[nH]1 | 135 |
| CCNCC1CCN(c2c(F)cc3c(=O)c(C(=O)O)cn(-c4ccc(F)cc4)c3c2F)C1 (stereo unspecified) | 249 to 251 |
| CCCCCCCCCCCCSC(=S)SC(C)(C#N)CCC(=O)O (stereo unspecified) | 58 to 59 |
| N#Cc1ccc2c(OCc3ccccc3)cc(C(=O)O)cc2c1 | 235 |
| COc1cc(N)c(Cl)cc1C(=O)NC1CCN(CCNC(=O)C(O)c2ccccc2)CC1OC (stereo unspecified) | 228 |
| O=C1NC(=O)C(c2ccc(F)cc2)(c2ccc(F)cc2)C(=O)N1 | 315 to 318 |
| CCNc1nc2c(ccc3[nH]c4cnc(C(=O)OC(C)C)c(CC)c4c32)s1 | 275 to 276 |
| CC(C)(Br)C(=O)OCCN1C(=O)c2ccccc2C1=O | 63 to 65 |
| COc1ccc(-c2ccc(C(=O)Nc3cc4ncc(CN5CCCC5)cc4cc3C)cc2F)cc1 | 165 to 167 |
| COc1ccc(C(=O)c2ccc(Cl)nc2)cc1OC | 158 to 159 |
| c1cc(N=Nc2ccncc2)ccn1 | 87 to 89 |
| O=C1NC(=S)SC1=Cc1ccc(C(F)(F)F)o1 | 174 |
| COc1ccccc1NS(=O)(=O)c1ccc(C)cc1 | 126 to 128 |
| COc1ccc(COCc2nnc3n2-c2ccc(Cl)cc2C(c2ccccc2)=NC3)cc1 | 157 to 159 |
| S=c1n(CN2CCCC2)nc(-c2ccncc2)n1-c1ccccc1 | 139 |
| C[C@H](NC1=NC=NC(N)(Cl)N1)c1ccccc1 (stereo partly specified) | 163 to 164 |
| O=C(O)CCCCCCCCCCCCCCCCCCC(=O)ON1C(=O)CCC1=O | 122 to 124 |
| CCCN1CCCN(c2c(N3CCCN(CCC)CC3)c(=O)c2=O)CC1 | 90 to 92 |

| SMILES | melting point [°C] |
| --- | --- |
| Cn1c(CCNS(C)(=O)=O)nnc1NCCCOc1cccc(CN2CCCCC2)c1 | 105 to 106 |
| Cc1oc(-c2ccccc2)nc1COc1nn(Cc2ccc(Oc3ccccc3)cc2)cc1CCC(=O)O | 120 to 121 |
| CC(C)SN(c1ccccc1)P(=O)(c1ccccc1)c1ccccc1 | 148 to 150 |
| CC(C)(C)OC(=O)N1CCC(Cc2ccc(Cl)cc2)(C(=O)O)CC1 | 179 to 180 |
| CC(=O)Oc1ccc(OCc2ccccc2)cc1CC(Br)CBr (racemic) | 72 to 74 |
| CSCC(C)Nc1nccc(-c2ccnc(Cl)c2)n1 (stereo unspecified) | 103 to 106 |
| CCCCc1sc2ccccc2c1C(=O)c1ccc(NS(=O)(=O)c2ccc(C)cc2)cc1 | 128 |
| CC(C)(C)NC(=O)N(C=O)Oc1cc(Cl)ccc1Cl | 101 to 102 |
| COc1cc(-c2ncc(C(F)(F)F)cc2Cl)c(F)cc1Cl | 105 to 106 |
| Cc1c(F)c(F)cc2c(=O)c(C(=O)O)cn(C3CC3)c12 | 240 to 243 |
| C=CCc1c(O)cccc1C1=NNC(=O)CC1 | 197 to 200 |
| CCCCCC1COc2cc(C3COC(C4COc5c(cc(F)c(C#N)c5F)C4)OC3)c(F)cc2C1 (stereo unspecified) | 111 |
| COCCc1nc2c(N)nc3cc(-c4ccccc4)ccc3c2n1CCCN1CCCC1=O | 187 to 191 |
| CC(O)CN1CCNC1=S (stereo unspecified) | 101 to 102 |
| CN1Cc2cc(Cl)ccc2C(=O)c2cc(CC(=O)O)ccc21 | 191 to 194 |
| C=CCNc1nc(CO)cs1 | 74 to 75 |
| COC(=O)C1(C(=O)OC)CCn2c(C(=O)c3ccccc3)cc(Br)c21 | 109 to 110 |
| CCCCOc1ccccc1-c1ncc(C(=O)OCC)c(=O)[nH]1 | 123 to 125 |
| O=S(=O)(c1nc(-c2ccccc2)c(-c2ccccc2)n1COCc1ccccc1)C(F)(F)C(F)F | 97.5 to 98.5 |
| O=C(NCCc1ccccc1)c1ccc(OC(F)(F)F)cc1 | 143 to 144 |
| CC(C)Oc1cc(-n2c(Cl)nc(C(F)(F)F)cc2=O)c(F)cc1Br | 102 |
| CC(C)CCC(=O)OC1c2ccccc2C(=O)N1c1ccc2ccc(F)nc2n1 (stereo unspecified) | 154 |
| CC(=O)NCC1CN(c2ccc(N3CCC(O)C(C)(C)C3)c(F)c2)C(=O)O1 (stereo unspecified) | 70 to 72 |
| Cc1c(-c2ccccn2)[nH]c2ncnc(Nc3cccc(Cl)c3)c12 | 171 to 172 |
| CC1=NN=C(c2ccc([N+](=O)[O-])cc2)c2cc3c(cc2C1)OCCOC3 | 204 to 206 |

The next lines start with the values.

| melting point [°C] | SMILES |
| --- | --- |
| 160 to 161 | COCCNC(=O)c1cnc(C(=O)O)c(OC)c1 |
| 75 | CC(C)(C)OC(=O)[C@H]1CC[C@@H](c2ccccc2)N1C(=O)CNC(=O)Nc1cccc(C(=O)OCc2ccccc2)c1 (racemic) |
| 128 to 129 | Cc1c(CO)c2cnnc(OCc3ccc(F)cc3)c2n1C[C@H]1C[C@@H]1C |
| 110 to 151 | C[C@H](NC(=O)CC1CCC(=O)CC1)c1ccccc1 |
| 197 to 199 | CCOc1cccc(NC(=O)NS(=O)(=O)c2ccc(C)cc2)n1 |
| 146 | CC(C)C(=O)Oc1cccc2c1C(=O)c1c(O)cccc1C2C(=O)C1CCCCC1 (stereo unspecified) |
| 161 to 162 | CCOc1cc(-n2c(=O)cc(C(F)(F)F)[nH]c2=O)c(F)cc1Br |
| 125 to 126 | CC(=NOCc1ccc2nonc2c1)c1ccc(O)c(F)c1 |
| 222 to 224 | CCCC(=O)Nc1cccc(C(c2c(O)c3c(oc2=O)CCCCCC3)C2CC2)c1 (stereo unspecified) |
| 106 | Brc1ccc(C=Cc2cccc3ccccc23)cc1 |
| 150 to 153 | O=C(O)c1c(Cl)cc(Cl)c(Cl)c1C(=O)O |
| 157 to 158 | Cc1ccnc(CSc2nc(C)cc(=O)[nH]2)c1 |
| 153 to 154 | COC(C)c1cccc2[nH]c3cnc(C(=O)OC(C)C)c(C)c3c12 (stereo unspecified) |
| 238 to 240 | O=[N+]([O-])c1ccc(C=CC=CC=CC=Cc2ccc([N+](=O)[O-])cc2)cc1 |
| 228 to 229 | O=C(O)CN1C(=O)C2(COc3cc4c(cc32)CCO4)c2c(Cl)cccc21 (stereo unspecified) |
| 122 to 128 | Cc1ccccc1OCC(O)CNC(C)(C)COc1ccc(C(N)=O)cn1 (stereo unspecified) |
| 186 to 188 | CCCCNC(=S)N1CCc2cc(S(=O)(=O)N3CC(c4ccccc4)NC3=O)ccc21 (stereo unspecified) |
| 163 to 164 | CSCS[C@H](C)[C@](O)(Cn1cncn1)c1ccc(Cl)cc1 |
| 185 to 187 | CC(=O)NC[C@H]1CN(c2ccc(C3CCOCC3)cc2)C(=O)O1 |
| 92 to 94 | COc1c(C)c(-c2ccccc2)nn1N |
| 118 to 119 | O=C(O)CCCCCCOc1ccc(OCc2ccccc2)cc1 |
| 256 to 260 | CN1CC[C@H](CP(=O)(O)O)C[C@@H]1C(=O)O (relative stereo) |
| 197 to 198 | CCOC(=O)c1ccc(NCCCc2c(N(C(C)=O)C(C)=O)nc(NC(C)=O)[nH]c2=O)cc1 |
| 127 to 128 | CCOC(=O)/C=C/c1cc(OCc2ccc(OCc3nc(-c4ccco4)oc3C)c(OC)c2)nn1-c1ccccc1 |
| 159 to 161 | Cc1ccc(-n2nc(C(=O)CCCO)cc2-c2ccc(S(C)(=O)=O)cc2)cc1 |
| 65 to 66 | Cc1ccc(C(C)N2C(=O)c3ccccc3C2=O)cc1 (stereo unspecified) |

| melting point [°C] | SMILES |
| --- | --- |
| 256 to 258 | O=c1[nH]c2cccnc2n1-c1ccc2c(c1)OCO2 |
| 145 to 147 | Clc1ccc(SC(CCc2ccccc2)Cn2ccnc2)cc1Cl (stereo unspecified) |
| 120 to 122 | C[C@H](Oc1ccc(-c2cccc(OCC(N)=O)c2)cc1)[C@H](O)CCc1cccnc1 |
| 156 to 158 | COc1ccc(C(=O)NCCCC(=O)O)cc1OCc1ccccc1 |
| 254 to 256 | COc1ccc(Cn2c(=O)[nH]c3ccc([N+](=O)[O-])cc3c2=O)cc1 |
| 187 to 188 | O=C(NCc1ccccn1)Nc1cc(N2CC(c3cccs3)OC2=O)ccn1 (stereo unspecified) |
| 207 to 208 | CCNC(=O)c1cc(NCn2nnc3ccccc32)ccc1[Si](C)(C)C |
| 339 to 341 | O=C(O)CN1C(=O)c2cccc3c(Sc4ccccc4C(=O)O)ccc(c23)C1=O |
| 269 to 270 | CC(C)C1C(=O)NC(c2ccc(NC(=O)CCl)cc2)c2ccccc21 (stereo unspecified) |
| 78 to 80 | COC(=O)C(C)(C)OCC#Cc1cc(Cl)ccc1NS(=O)(=O)c1cc(C)cc(C)c1 |
| 164 to 166 | CCn1c(-c2ccc(Cl)c(S(=O)(=O)N(C)C)c2)csc1=Nc1ccccc1C |
| 120 to 122 | CCOC(=O)N=P(c1ccccc1)(c1ccccc1)c1ccccc1CN1CCCC1 |
| > 300 | O=C(c1ccccc1)c1c[nH]c2ncnc(Nc3cccc(CCO)c3)c12 |
| 233 to 234 | CS(=O)c1cccc(-n2cnc(-c3ccc(F)cc3)c2-c2ccncc2)c1 (stereo unspecified) |
| 198 | CC(=O)n1ccc2c1CCn1ccnc1C2=C1CCN(C)CC1 |
| 168 | CCc1cc2c([nH]c1=O)C(=O)C=CC2=O |
| 65 to 66 | Fc1ncnc(Oc2ccccc2)c1F |
| 267 to 271 | N#Cc1nn(-c2c(Cl)cc(Cl)cc2Cl)c(N)c1C#N |
| 220 to 223 | ClC1=Nc2cccc(Br)c2C2=NCCN12 |
| 122 to 127 | CS(=O)(=O)Nc1c(CCCCCCC(=O)O)ccc2ccccc12 |
| 250 to 253 | O=C(O)CN1C(=O)c2cccc3c(Sc4ccccc4)ccc(c23)C1=O |
| 193 to 194 | CC(C)N(CCN1C(=O)/C(=N/NC(N)=O)c2ccccc21)Cc1ccccc1 |
| 305 to 315 | Cn1c2cc(Cl)ccc2c2c(CC#N)nn(-c3ccccc3)c(=O)c21 |
| 131 | Clc1ccc(-c2cn3cccc4c3c2CCC4)cc1 |
| 296 to 298 | O=C(NCc1ccc(Cl)cc1)c1nnc2ccc(CO)cc2c1O |
